What all share (type): physicochemical
The nature of data set [1]: Accelerated stability, open vials in LDPE bag, 40° C./75% RH, five weeks. The method, then: Upon removal from the chamber, the samples were physically characterized by appearance, KF, TGA, DSC, XRD and PLM. The samples were also analyzed by HPLC for chromatographic purity, chiral integrity and potency. Where applicable, the data presented in the stability portion also includes the original T=0 data for comparison purposes. The data can be seen in Tables 25-29 and FIGS. 40-44.

The nature of data set [2]: Dynamic vapor sorption / humidity exposure (IGAsorp, 25° C.). The following applies: at 80% RH, hydrogen sulfate. The method, then:
• 1. The hygroscopicity was studied at 25° C. using an IGAsorp analyzer. • 2. About 15 mg of sample was placed in a tared mesh sample holder at an initial ambient room humidity setting of ˜35%. • 3. A total wet/dry nitrogen flow rate of 250 cc/min is used throughout the study. • 4. […] The maximum time allowed at any one humidity set point was 120 min. The sample was maintained under dry N2 after the cycle was completed. Percent weight gain was calculated based on the dry weight basis.

Data set [3] can be described thus: Bulk and tap densities, Carr's Index, Hausner Ratio. The method, then:
The powder was added to a pre-weighed 10 mL graduated cylinder through a funnel that was not in direct contact with the graduated cylinder to avoid transference of vibrations. Powder was added until a 10 mL volume was reached and then the graduated cylinder with powder was weighed. The bulk density was calculated by
[formula] The same sample in the graduated cylinder was tapped for the following sequence: 100, 150, 250, 250 taps. The volume was measured after each interval. The tapped density was calculated by
The Carr's Index was calculated according to the following equation: […]
The Hausner Ratio was calculated with the following equation: […]

Data set [4] in a line: Angle of repose. As to conditions: for Angle of Repose θ: one side of the pile; for Angle of Repose φ: other side of the pile. The method, then:
The angle of repose is the angle formed by the horizontal base of the surface and the edge of a cone-like pile of granules. It is calculated from the following equation: […]
The angle of repose was measured by slowly pouring approximately 1 g of sample through a funnel with a 3/16″ inner diameter of the outlet. The powder then fell 1 11/16″ to land on the surface of an overturned crystallization dish on which a pile of powder formed. A picture was taken of the pile after addition of all of the material. The angle between the dish surface and the surface of the pile was measure via a protractor on the pictures. Care was taken to replicate the same positions and fall distances in the set up between different samples.

Data set [5] is described as follows: Stability on aluminum slide at 40° Celsius/75% RH. The following applies: I-HS 10 days; HCl after 1 hour; HBr after 2 weeks; mesylate overnight.
Data set [6] is described as follows: Dynamic vapor sorption (DVS-1 system). As to conditions: for DVS (outcome): HCl: at 50-60% RH. The method, then:
For the DVS measurement a sample of crystalline form (I-HS) was cycled through changing humidity conditions to determine its hygroscopicity. The sample was analyzed using a Surface Measurement System DVS-1 Dynamic Vapor Sorption System. […] Data was collected in 1 minute intervals. Nitrogen was used as the carrier gas. […] After completion of the sorption cycle, the sample was dried using the same procedure, but all the way down to 0% RH and finally taken back to the starting point of 20% RH. The weight change during the sorption/desorption cycles were plotted, allowing for the hygroscopic nature of the sample to be determined.

This note sets out measurements from patent US10799505B2, “Crystalline form of (S)-N-(5-((R)-2-(2,5-difluorophenyl)-pyrrolidin-1-yl)-pyrazolo[1,5-A]pyrimidin-3-yl)-3-hydroxypyrrolidine-1-carboxamide hydrogen sulfate” (Array BioPharma, Inc., priority 2014, dated 2020).

Turning to `O=C(Nc1cnn2ccc(N3CCC[C@@H]3c3cc(F)ccc3F)nc12)N1CC[C@H](O)C1.O=S(=O)(O)O` [AM(HS)1, (S)—N-(5-((R)-2-(2,5-difluorophenyl)-pyrrolidin-1-yl)-pyrazolo[1,5-a]pyrimidin-3-yl)-3-hydroxypyrrolidine-1-carboxamide hydrogen sulfate], in data set [1] (40° C./75% RH, 5 wks), the Appearance result is recorded as “Orange Powder”, the “Assay (HPLC)” value is reported as 80.3%, the “Chiral Potency (HPLC)” value is 99.6% and the “KF (water content)” value worked out at 0.56 w/w %. Besides, in data set [1] (40° C./75% RH, 5 wks), the “Peak Area Percent, RRT 0.793” value is recorded as 0.00; the “Peak Area Percent, RRT 0.863” value turned out to be 1.04; the “Peak Area Percent, RRT 0.981” value came out at 0.12; the “Peak Area Percent, RRT 1.000” value worked out at 98.83. Besides, in data set [1] (40° C./75% RH, 5 wks), the “Peak Area Percent, RRT 1.535” value was 0.00 and the “Total Impurities (HPLC)” value is 1.16%. Besides, in data set [1] (40° C./75% RH, five weeks), the “change of API chemical purity” value is on record as “did not change significantly”. Besides, in data set [1] (time point 0 wks), the Appearance entry was “Yellow Powder”, the “Assay (HPLC)” value was 79.5%, the “Chiral Potency (HPLC)” value was determined as 99.6% and the “KF (water content)” value is listed as 2.00 w/w %. Also, in data set [1] (time point 0 wks), the “Peak Area Percent, RRT 0.793” value amounted to 0.00; the “Peak Area Percent, RRT 0.863” value is 0.98; the “Peak Area Percent, RRT 0.981” value stood at 0.12; the “Peak Area Percent, RRT 1.000” value worked out at 98.89. In data set [1] (time point 0 wks), the “Peak Area Percent, RRT 1.535” value was 0.00 and the “Total Impurities (HPLC)” value was 1.10%. Also, in data set [2], the “mass gained in DVS” value is listed as “greater than 13%”.

For the molecule `O=C(Nc1cnn2ccc(N3CCC[C@@H]3c3cc(F)ccc3F)nc12)N1CC[C@H](O)C1.O=S(=O)(O)O` [AM(HS)2, (S)—N-(5-((R)-2-(2,5-difluorophenyl)-pyrrolidin-1-yl)-pyrazolo[1,5-a]pyrimidin-3-yl)-3-hydroxypyrrolidine-1-carboxamide hydrogen sulfate], the “mass gained in DVS” value in data set [2] was around 12%.

For `O=C(Nc1cnn2ccc(N3CCC[C@@H]3c3cc(F)ccc3F)nc12)N1CC[C@H](O)C1.O=S(=O)(O)O` [AR00457470-33], in data set [3], the “Bulk Density” value stood at 423.6 mg/mL and the “Tapped Density” value is given as 622.9 mg/mL. In addition, in data set [4], the “Angle of Repose Average” value turned out to be 45.70 °, the “Angle of Repose θ” value was 47.79 ° and the “Angle of Repose φ” value was 43.6 °.

Consider `Br.O=C(Nc1cnn2ccc(N3CCC[C@@H]3c3cc(F)ccc3F)nc12)N1CC[C@H](O)C1` [HBr, (S)—N-(5-((R)-2-(2,5-difluorophenyl)pyrrolidin-1-yl)pyrazolo[1,5-a]pyrimidin-3-yl)-3-hydroxypyrrolidine-1-carboxamide hydrobromide], for which the “Stability at 40° Celsius/75% RH (aluminum slide)” value (“Stability at 40° Celsius/75% RH” for short) in data set [5] is “amorphous”. Moreover, in data set [6], the “DVS (outcome)” value is on record as “(deliquesced)”. Further, the DVS weight gain was around 3.9% gain at 80% in data set [6] (at 80% RH) and around 25% gain at 90% in data set [6] (at 90% RH).

For the molecule `Cl.O=C(Nc1cnn2ccc(N3CCC[C@@H]3c3cc(F)ccc3F)nc12)N1CC[C@H](O)C1` [HCl, (S)—N-(5-((R)-2-(2,5-difluorophenyl)pyrrolidine-1-yl)pyrazolo[1,5-a]pyrimidin-3-yl)-3-hydroxypyrrolidine-1-carboxamide hydrochloride], the “Stability at 40° Celsius/75% RH” value in data set [5] is on record as “form change”. For the same molecule, the “DVS (outcome)” value in data set [6] is “form change”. In addition, in data set [6] (at 50% RH), the DVS weight gain was around 1% gain at 50%.

In the case of `O=C(Nc1cnn2ccc(N3CCC[C@@H]3c3cc(F)ccc3F)nc12)N1CC[C@H](O)C1` [L-ARR10-118], in data set [3], the “Bulk Density” value was 594.8 mg/mL and the “Tapped Density” value came out at 762.6 mg/mL. In data set [4], the “Angle of Repose Average” value was 50.28 °, the “Angle of Repose θ” value is 50.28 ° and the “Angle of Repose φ” value was 50.28 °.

Consider `CS(=O)(=O)O.O=C(Nc1cnn2ccc(N3CCC[C@@H]3c3cc(F)ccc3F)nc12)N1CC[C@H](O)C1` [Mesylate, (S)—N-(5-((R)-2-(2,5-difluorophenyl)pyrrolidin-1-yl)pyrazolo[1,5-a]pyrimidin-3-yl)-3-hydroxypyrrolidine-1-carboxamide methanesulfonate], for which the “Stability at 40° Celsius/75% RH” value in data set [5] is on record as “Deliquesced”. In data set [6], the “DVS (outcome)” value was “(crystalline)”. Moreover, the DVS weight gain in data set [6] (at 80% RH) is recorded as around 9% gain at 80%; in data set [6] (at 90% RH), around 50% gain at 90%.
